In patent US9617267B2, “Compounds and methods for kinase modulation, and indications therefor” (Plexxikon Inc., priority 2009, dated 2017):
Where two headings read alike, the source gives them in different places.

Key:
c-Raf-1 = c-Raf-1 (Homo sapiens, UniProt P04049); test: c-Raf-1 kinase activity biochemical assay (AlphaScreen, biotin-MEK1 phosphorylation)
How it was run: (§1)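 Biotin-MEK1 phosphorylation measured after 45 min kinase reaction at RT with 100 μM ATP final; compounds tested at 8 points from 0.1 mM DMSO stock.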

CYP2D6 = CYP2D6 (Homo sapiens (Human), UniProt P10635); test: CYP enzyme inhibition, fluorescent substrate (AMMC); format: in vitro ADME; details: read-out: Cyp IC50 2D6
Description: (§2) CYP (Cytochrome P450) enzymes are the major drug metabolizing enzymes present in the liver. The inhibition of CYP enzyme activity (IC50) for each of CYP1A2, CYP2C19, CYP2C9, CYP2D6, CYP3A4(BFC) and CYP3A4(BQ) is determined for compounds, where inhibition of metabolism of a known substrate leads to a decrease in the fluorescence of the metabolized product. The fluorescence of the product is monitored as a function of compound concentration.
(§3) Compounds are dissolved in dimethyl sulfoxide to a concentration of 100 mM. These are diluted 1 μL into 82 μL of acetonitrile. An 11 μL aliquot of this solution is then added to 204 μL of cofactor mix (1.3% NADPH Regeneration system Solution A, 1.04% NADPH Regeneration system Solution B from BD Biosciences, 5% acetonitrile and 0.05% dimethyl sulfoxide). These are then serially diluted 1:1 (160 μL to 160 μL co-factor mix) for a total of 10 points. A 10 μL aliquot of this final mixture is dispensed into 384 well assay plates and incubated for 10 minutes at 37° C. Enzyme and substrate mix (10 μL; 0.5 pmol CYP1A2/5 μM CEC; 1.0 pmol CYP2C9/75 μM MFC; 0.5 pmol CYP2C19/25 μM CEC; 1.5 pmol CYP2D6/1.5 μM AMMC; 1.0 pmol CYP3A4/50 μM BFC; or 1.0 pmol CYP3A4/40 μM BQ) is added to these assay plates. Assay plates are incubated at 37° C. (CYP1A2-15 min; CYP2C9-45 min; CYP2C19, 2D6 and 3A4-30 min) and read in a Tecan Safire 2 plate reader (CYP1A2, 2C19 and 3A4 409 ex/460 em; CYP2C9 and 2D6 409 ex/530 em). The signal versus compound concentration is used to determine the IC50. The enzymes and substrates for this assay are obtained from BD Biosciences.

CYP2C9 = CYP2C9 (Homo sapiens (Human), UniProt P11712); test: CYP enzyme inhibition, fluorescent substrate (MFC); details: read-out: Cyp IC50 2C9; CYP2C9, substrate MFC
Description: as §2
(§4) Compounds are dissolved in dimethyl sulfoxide to a concentration of 100 mM. These are diluted 1 μL into 82 μL of acetonitrile. […] These are then serially diluted 1:1 (160 μL to 160 μL co-factor mix) for a total of 10 points. A 10 μL aliquot of this final mixture is dispensed into 384 well assay plates and incubated for 10 minutes at 37° C. […] Assay plates are incubated at 37° C. […] The signal versus compound concentration is used to determine the IC50. The enzymes and substrates for this assay are obtained from BD Biosciences.

CYP1A2 = CYP1A2 (Homo sapiens (Human), UniProt P05177); test: CYP enzyme inhibition, fluorescent substrate (CEC)
Description: as §2, §3

CYP2C19 = CYP2C19 (Homo sapiens (Human), UniProt P33261); test: CYP enzyme inhibition, fluorescent substrate (CEC)
How it was run: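 Human CYP activity was followed by the fluorescence of the metabolized product of a known substrate, which falls as metabolism is inhibited. Compounds from 100 mM DMSO stocks were serially diluted 1:1 over 10 points in co-factor mix and preincubated 10 min at 37 °C. IC50 was fitted from signal versus concentration.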

B-Raf V600E = B-Raf V600E (Homo sapiens (Human), UniProt P15056, V600E); test: B-Raf V600E kinase activity biochemical assay (AlphaScreen, biotin-MEK1 phosphorylation); details: for IC50: B-Raf V600E; for Biochemical activity ratio V600E/C: ratio of IC50 B-Raf V600E / c-Raf-1
How it was run: as §1

CYP3A4(BFC) = CYP3A4(BFC) (Homo sapiens (Human), UniProt P08684); test: CYP enzyme inhibition, fluorescent substrate BFC
Description: as §2, §4

B-Raf [1] = biological target: B-Raf (Homo sapiens (Human), UniProt P15056); test: B-Raf kinase activity biochemical assay (AlphaScreen, biotin-MEK1 phosphorylation); details: B-Raf
How it was run: as §1

B-Raf [2] = test: as above; details: for Biochemical activity ratio B/V600E: ratio of IC50 B-Raf / B-Raf V600E; for Biochemical activity ratio B/C: ratio of IC50 B-Raf / c-Raf-1
How it was run: as §1

[3] = Relative solubility by turbidity threshold concentration in aqueous buffers (pH 1.5, 4.5, 6.8, 7.4); format: physicochemical; details: for turbidity threshold (L, M, H) 1.4: pH 1.4 [sic] (method: SGF pH 1.5); for turbidity threshold (L, M, H) 4.5: pH 4.5 (SIF); for turbidity threshold (L, M, H) 6.8: pH 6.8 (SIF); for turbidity threshold (L, M, H) 7.4: pH 7.4 (HEPES)
How it was run: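 Solubility class (high >250 μM, moderate 31.3–250 μM, low <31.3 μM) comes from the concentration where absorbance reaches a 0.01 threshold, averaged across 490/535/650 nm. Samples were compound dilutions from DMSO stock, 1 μL into 99 μL buffer at pH 1.5, 4.5, 6.8 or 7.4.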

[4] = read-out: Cyp IC50 1A2, CYP1A2, substrate CEC
[5] = read-out: Cyp IC50 2C19, CYP2C19, substrate CEC
[6] = read-out: Cyp IC50 3A4(BFC), CYP3A4, substrate BFC

Sequence of CYP2C19 (P33261 whole entry): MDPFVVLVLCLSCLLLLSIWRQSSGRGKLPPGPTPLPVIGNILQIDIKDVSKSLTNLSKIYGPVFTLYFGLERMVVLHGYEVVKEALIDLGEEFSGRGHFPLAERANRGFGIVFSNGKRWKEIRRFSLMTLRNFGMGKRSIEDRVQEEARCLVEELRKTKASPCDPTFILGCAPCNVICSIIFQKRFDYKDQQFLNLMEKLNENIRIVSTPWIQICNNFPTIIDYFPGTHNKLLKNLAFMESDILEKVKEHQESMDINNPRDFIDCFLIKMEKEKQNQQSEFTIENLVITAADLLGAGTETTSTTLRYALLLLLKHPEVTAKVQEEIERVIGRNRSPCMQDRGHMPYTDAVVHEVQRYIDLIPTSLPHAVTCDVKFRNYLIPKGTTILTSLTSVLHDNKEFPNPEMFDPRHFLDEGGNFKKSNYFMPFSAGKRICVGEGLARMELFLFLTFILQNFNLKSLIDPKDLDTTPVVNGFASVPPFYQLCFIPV
Sequence of CYP3A4(BFC) (P08684 whole entry): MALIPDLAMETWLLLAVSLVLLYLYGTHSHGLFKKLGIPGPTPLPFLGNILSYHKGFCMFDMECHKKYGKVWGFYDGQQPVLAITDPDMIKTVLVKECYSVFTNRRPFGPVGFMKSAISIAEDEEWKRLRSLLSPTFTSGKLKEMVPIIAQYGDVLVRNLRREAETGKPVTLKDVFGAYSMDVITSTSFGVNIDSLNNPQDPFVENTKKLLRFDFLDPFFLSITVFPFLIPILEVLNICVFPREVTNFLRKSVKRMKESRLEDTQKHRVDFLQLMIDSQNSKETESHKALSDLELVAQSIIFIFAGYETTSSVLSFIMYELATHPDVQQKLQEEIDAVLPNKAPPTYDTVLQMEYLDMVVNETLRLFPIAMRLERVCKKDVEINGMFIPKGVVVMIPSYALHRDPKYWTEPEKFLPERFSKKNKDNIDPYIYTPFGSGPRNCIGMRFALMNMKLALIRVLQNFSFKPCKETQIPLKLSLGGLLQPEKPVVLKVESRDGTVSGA
Sequence of CYP2C9 (P11712 whole entry): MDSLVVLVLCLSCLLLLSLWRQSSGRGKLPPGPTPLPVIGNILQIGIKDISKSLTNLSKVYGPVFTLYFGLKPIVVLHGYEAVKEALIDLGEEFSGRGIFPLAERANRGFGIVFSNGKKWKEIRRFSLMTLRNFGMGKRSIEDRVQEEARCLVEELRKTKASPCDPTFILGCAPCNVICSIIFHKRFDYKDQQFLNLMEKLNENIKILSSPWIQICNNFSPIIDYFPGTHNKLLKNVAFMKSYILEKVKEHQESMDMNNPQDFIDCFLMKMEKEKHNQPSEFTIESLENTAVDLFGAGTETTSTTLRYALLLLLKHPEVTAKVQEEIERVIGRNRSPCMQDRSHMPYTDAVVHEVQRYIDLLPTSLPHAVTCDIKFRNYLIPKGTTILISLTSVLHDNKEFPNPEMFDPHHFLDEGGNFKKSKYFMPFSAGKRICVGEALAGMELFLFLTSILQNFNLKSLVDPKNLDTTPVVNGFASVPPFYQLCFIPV
Sequence of CYP1A2 (P05177 whole entry): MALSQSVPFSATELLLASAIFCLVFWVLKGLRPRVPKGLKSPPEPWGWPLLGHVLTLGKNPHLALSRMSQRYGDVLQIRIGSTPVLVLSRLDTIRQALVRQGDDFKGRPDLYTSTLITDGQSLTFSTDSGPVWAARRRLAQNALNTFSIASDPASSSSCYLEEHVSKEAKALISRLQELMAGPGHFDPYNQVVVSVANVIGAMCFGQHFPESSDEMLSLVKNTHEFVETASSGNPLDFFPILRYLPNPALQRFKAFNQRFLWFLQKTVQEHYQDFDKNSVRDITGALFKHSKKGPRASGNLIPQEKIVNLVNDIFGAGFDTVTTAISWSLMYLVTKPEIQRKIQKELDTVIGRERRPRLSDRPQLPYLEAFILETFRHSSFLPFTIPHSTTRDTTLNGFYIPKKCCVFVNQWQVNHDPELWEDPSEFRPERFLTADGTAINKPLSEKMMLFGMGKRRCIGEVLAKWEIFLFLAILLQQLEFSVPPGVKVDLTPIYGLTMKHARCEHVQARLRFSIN
Sequence of c-Raf-1 (P04049 whole entry, looked up): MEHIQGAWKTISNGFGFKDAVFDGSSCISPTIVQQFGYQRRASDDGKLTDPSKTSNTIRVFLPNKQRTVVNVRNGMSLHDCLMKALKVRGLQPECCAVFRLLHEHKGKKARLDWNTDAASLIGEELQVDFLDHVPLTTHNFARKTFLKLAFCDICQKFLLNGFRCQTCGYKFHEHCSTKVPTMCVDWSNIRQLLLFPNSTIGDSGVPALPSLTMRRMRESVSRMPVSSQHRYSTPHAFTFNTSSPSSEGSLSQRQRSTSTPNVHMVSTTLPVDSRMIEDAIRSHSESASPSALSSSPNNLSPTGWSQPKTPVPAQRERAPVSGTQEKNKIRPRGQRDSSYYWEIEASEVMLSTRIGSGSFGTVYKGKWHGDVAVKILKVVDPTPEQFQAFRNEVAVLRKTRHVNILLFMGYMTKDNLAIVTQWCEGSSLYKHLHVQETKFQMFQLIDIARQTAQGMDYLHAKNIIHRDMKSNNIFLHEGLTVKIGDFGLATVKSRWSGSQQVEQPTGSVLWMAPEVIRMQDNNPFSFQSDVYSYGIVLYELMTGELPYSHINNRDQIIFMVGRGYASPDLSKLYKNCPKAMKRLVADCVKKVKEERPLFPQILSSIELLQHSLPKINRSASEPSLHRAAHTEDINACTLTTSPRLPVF
Sequence of CYP2D6 (P10635 whole entry): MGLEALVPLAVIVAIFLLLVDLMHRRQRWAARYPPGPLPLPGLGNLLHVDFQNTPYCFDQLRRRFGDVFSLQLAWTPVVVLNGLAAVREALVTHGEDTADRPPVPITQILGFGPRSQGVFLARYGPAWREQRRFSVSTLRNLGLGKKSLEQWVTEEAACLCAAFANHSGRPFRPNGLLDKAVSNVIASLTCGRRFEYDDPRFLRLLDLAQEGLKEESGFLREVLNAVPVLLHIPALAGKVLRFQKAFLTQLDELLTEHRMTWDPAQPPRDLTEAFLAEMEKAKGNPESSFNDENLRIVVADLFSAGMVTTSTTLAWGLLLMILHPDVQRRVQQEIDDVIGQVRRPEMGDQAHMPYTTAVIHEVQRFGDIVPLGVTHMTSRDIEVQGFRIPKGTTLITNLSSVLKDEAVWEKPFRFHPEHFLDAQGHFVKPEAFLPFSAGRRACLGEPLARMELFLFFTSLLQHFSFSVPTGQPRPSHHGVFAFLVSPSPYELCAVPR
Sequence of B-Raf V600E (P15056 whole entry V600E): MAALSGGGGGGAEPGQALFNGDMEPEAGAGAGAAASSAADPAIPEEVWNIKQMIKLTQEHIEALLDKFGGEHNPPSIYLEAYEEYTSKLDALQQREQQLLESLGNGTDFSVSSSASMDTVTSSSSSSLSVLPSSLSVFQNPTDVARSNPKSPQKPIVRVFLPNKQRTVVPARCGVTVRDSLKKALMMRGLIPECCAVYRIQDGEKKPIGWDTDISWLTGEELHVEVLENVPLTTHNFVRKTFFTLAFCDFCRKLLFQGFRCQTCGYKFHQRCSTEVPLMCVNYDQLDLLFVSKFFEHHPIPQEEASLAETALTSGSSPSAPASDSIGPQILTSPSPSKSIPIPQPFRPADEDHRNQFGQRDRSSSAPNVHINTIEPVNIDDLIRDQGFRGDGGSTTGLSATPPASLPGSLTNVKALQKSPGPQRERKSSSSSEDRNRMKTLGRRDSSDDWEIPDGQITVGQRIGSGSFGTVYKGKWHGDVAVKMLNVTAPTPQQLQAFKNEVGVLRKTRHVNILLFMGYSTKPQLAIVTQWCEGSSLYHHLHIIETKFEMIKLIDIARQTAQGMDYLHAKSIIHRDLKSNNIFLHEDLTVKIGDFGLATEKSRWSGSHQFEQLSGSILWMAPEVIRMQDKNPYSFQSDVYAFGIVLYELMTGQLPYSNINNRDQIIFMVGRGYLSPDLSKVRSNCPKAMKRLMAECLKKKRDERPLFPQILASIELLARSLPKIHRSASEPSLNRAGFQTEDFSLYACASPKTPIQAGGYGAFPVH
Sequence of B-Raf (Homo sapiens (Human), UniProt P15056) (P15056 whole entry): as the sequence (P15056 whole entry V600E) above, with E600V counted along it

Compound	IC50 (c-Raf-1)	IC50 (CYP2D6)	IC50 (CYP2C9)	IC50 (CYP1A2; [4])	IC50 (CYP2C19; [5])	IC50 (B-Raf V600E)	Biochemical activity ratio V600E/C (B-Raf V600E)	IC50 (CYP3A4(BFC); [6])	IC50 (B-Raf [1])	Biochemical activity ratio B/V600E (B-Raf [2])	Biochemical activity ratio B/C (B-Raf [2])	turbidity threshold (L, M, H) 1.4 [3]	turbidity threshold (L, M, H) 4.5 [3]	turbidity threshold (L, M, H) 6.8 [3]	turbidity threshold (L, M, H) 7.4 [3]	IC50 (CYP2C19)	IC50 (CYP1A2; human, 15 min)	IC50 (CYP3A4(BFC))
Nc1ncnc2[nH]cc(C(=O)c3c(F)ccc(NS(=O)(=O)c4ccc(C(F)(F)F)cc4)c3F)c12 [P-1031, N-[3-(4-Amino-7H-pyrrolo[2,3-d]pyrimidine-5-carbonyl)-2,4-difluoro-phenyl]-4-trifluoromethyl-benzenesulfonamide]	< 0.1 µM	> 10 µM	> 10 µM	> 10 µM	> 10 µM	> 0.1 µM	>10	> 10 µM	> 0.1 µM	0.1-10	>10	M (moderate solubility if the threshold concentration is 31.3 μM to 250 μM)	M (moderate solubility if the threshold concentration is 31.3 μM to 250 μM)	M (moderate solubility if the threshold concentration is 31.3 μM to 250 μM)	M (moderate solubility if the threshold concentration is 31.3 μM to 250 μM)			
CCCNc1ncnc2[nH]cc(C(=O)c3c(F)ccc(NS(=O)(=O)c4ccc(C(F)(F)F)cc4)c3F)c12 [P-1032, N-[2,4-Difluoro-3-(4-propylamino-7H-pyrrolo[2,3-d]pyrimidine-5-carbonyl)-phenyl]-4-trifluoromethyl-benzenesulfonamide]	< 0.1 µM	> 10 µM	> 10 µM	> 10 µM		< 0.1 µM	>10	> 10 µM	< 0.1 µM	0.1-10	>10	L (low solubility if the threshold concentration is <31.3 μM)	L (low solubility if the threshold concentration is <31.3 μM)			5 to 10 µM		
CCCS(=O)(=O)Nc1ccc(F)c(C(=O)c2c[nH]c3ncnc(Cl)c23)c1F [P-1033, Propane-1-sulfonic acid [3-(4-chloro-7H-pyrrolo[2,3-d]pyrimidine-5-carbonyl)-2,4-difluoro-phenyl]-amide]	< 0.1 µM	> 10 µM	> 10 µM		> 10 µM	< 0.1 µM	0.1-10	> 10 µM	> 0.1 µM	0.1-10	>10	H (high solubility if the threshold concentration is >250 μm)	H (high solubility if the threshold concentration is >250 μm)	H (high solubility if the threshold concentration is >250 μm)	H (high solubility if the threshold concentration is >250 μm)		> 10 µM	
CCCc1ccc(S(=O)(=O)Nc2ccc(F)c(C(=O)c3c[nH]c4ncnc(Cl)c34)c2F)cc1 [P-1034, N-[3-(4-Chloro-7H-pyrrolo[2,3-d]pyrimidine-5-carbonyl)-2,4-difluoro-phenyl]-4-propyl-benzenesulfonamide]	< 0.1 µM	> 10 µM	> 10 µM			> 0.1 µM	>10		> 0.1 µM	0.1-10	0.1-10	M (moderate solubility if the threshold concentration is 31.3 μM to 250 μM)	M (moderate solubility if the threshold concentration is 31.3 μM to 250 μM)	M (moderate solubility if the threshold concentration is 31.3 μM to 250 μM)	M (moderate solubility if the threshold concentration is 31.3 μM to 250 μM)	5 to 10 µM	> 10 µM	5 to 10 µM
O=C(c1c(F)ccc(NS(=O)(=O)c2ccc(C(F)(F)F)cc2)c1F)c1c[nH]c2ncnc(NC3CCCC3)c12 [P-1035, N-[3-(4-Cyclopentylamino-7H-pyrrolo[2,3-d]pyrimidine-5-carbonyl)-2,4-difluoro-phenyl]-4-trifluoromethyl-benzenesulfonamide]	< 0.1 µM	> 10 µM	> 10 µM			< 0.1 µM	>10		< 0.1 µM	0.1-10	>10	L (low solubility if the threshold concentration is <31.3 μM)	L (low solubility if the threshold concentration is <31.3 μM)	L (low solubility if the threshold concentration is <31.3 μM)	L (low solubility if the threshold concentration is <31.3 μM)	5 to 10 µM	> 10 µM	5 to 10 µM
O=C(c1c(F)ccc(NS(=O)(=O)c2ccc(C(F)(F)F)cc2)c1F)c1c[nH]c2ncnc(Nc3ccccc3)c12 [P-1037, N-[2,4-Difluoro-3-(4-phenylamino-7H-pyrrolo[2,3-d]pyrimidine-5-carbonyl)-phenyl]-4-trifluoromethyl-benzenesulfonamide]	< 0.1 µM	> 10 µM	> 10 µM		< 5 µM	> 0.1 µM	>10	> 10 µM	< 0.1 µM	0.1-10	>10	L (low solubility if the threshold concentration is <31.3 μM)	L (low solubility if the threshold concentration is <31.3 μM)	L (low solubility if the threshold concentration is <31.3 μM)	L (low solubility if the threshold concentration is <31.3 μM)		> 10 µM	
CC(C)Nc1ncnc2[nH]cc(C(=O)c3c(F)ccc(NS(=O)(=O)c4ccc(C(F)(F)F)cc4)c3F)c12 [P-1039, N-[2,4-Difluoro-3-(4-isopropylamino-7H-pyrrolo[2,3-d]pyrimidine-5-carbonyl)-phenyl]-4-trifluoromethyl-benzenesulfonamide]	< 0.1 µM	> 10 µM	> 10 µM		> 10 µM	< 0.1 µM	>10		< 0.1 µM	0.1-10	>10	M (moderate solubility if the threshold concentration is 31.3 μM to 250 μM)	M (moderate solubility if the threshold concentration is 31.3 μM to 250 μM)	M (moderate solubility if the threshold concentration is 31.3 μM to 250 μM)	M (moderate solubility if the threshold concentration is 31.3 μM to 250 μM)		> 10 µM	5 to 10 µM
